Source: US8226943B2, “Antibodies to notch receptors” (OncoMed Pharmaceuticals, Inc., priority 2008, dated 2012)

Assays:
stroma of Colo205 tumors [1] = assay: Microarray gene expression in stroma of treated xenograft tumors, Colo205; type: in vivo, mice; settings: 59R1 vs control
stroma of PE13 tumors = assay: Microarray gene expression in stroma of treated xenograft tumors, PE13; type: in vivo, mice; settings: 59R1 vs control
stroma of Colo205 tumors [2] = assay: Microarray gene expression in stroma of treated xenograft tumors, Colo205; type: in vivo, mice; settings: 59R1 vs control; remark: listed apart in the source
Experimental: Gene expression levels in various xenograft tumor models treated with the 59R1 IgG2 antibody were analyzed by microarray analysis. Global gene expression profiling analysis was performed on Affymetrix HG-U133 plus 2.0 microarray (Affymetrix, Santa Clara, Calif.). Three independent RNA samples of xenograft whole tumors from the control and treatment groups were isolated and hybridized to the microarrays according to the manufacturer's instructions. Scanned array background adjustment and signal intensity normalization were performed with GCRMA algorithm in the open-source bioconductor software (www.bioconductor.org). The expression level of each gene was normalized by z-score transformation across the samples in the control (CTRL) and treatment (59R1) groups.

[3] = biological target: T1, binding of DLL4 to the human Notch 2 receptor (Homo sapiens, UniProt Q04721); assay: FACS blocking of hDLL4 ECD-Fc binding to human Notch2 on HEK-293 cells; settings: HEK-293 stably overexpressing human Notch2
T1 construct: expressed in transfected cells; host or cells: HEK-293, stably overexpressing human Notch2
Experimental: (§1) In addition, the 59R1 IgG2 antibody was assayed for its ability to block binding of DLL4 to the human Notch 2 receptor by FACS analysis. HEK-293 cells stably overexpressing human Notch2 were incubated with the antibody at various concentration and then detected for hNotch2 binding (FIG. 1C) by PE-conjugated goat anti-human Fc gamma specific antibody, or ligand blocking activity (FIG. 1D). Ligand blocking was determined by incubating the cells with human DLL4 ECD tagged with the rabbit Fc constant region and the 59R1 antibody at a range of concentrations, and then detecting the hDLL4 by PE-conjugated donkey anti-rabbit antibody. Binding of hNotch2 and ligand blocking activity were thus confirmed for the 59R1 IgG2 antibody.

human Notch2 = human Notch2 (Homo sapiens, UniProt Q04721); assay: FACS binding to human Notch2 on stably transfected HEK-293 cells; set-up: expressed in transfected cells; host or cells: HEK-293, stably transfected; settings: HEK-293 stably overexpressing human Notch2
Experimental: A particular Fab (59R1) was identified that bound the human Notch2 receptor and blocked binding of Jagged1 to human Notch2. Binding of the 59R1 Fab to human Notch2 was verified by FACS assay using a stable human cell line HEK-293 which overexpressed human Notch2 (hN2) (FIG. 1A). Fab binding was detected by phycoerythrin (PE)-conjugated goat anti-human Fab (Jackson Immunochemicals). […] Ligand binding and blocking was determined by incubating hJagged 1 extracellular domain (ECD) fused to human Fc constant region with the cells and Fabs selected from the phage library and using PE-conjugated goat anti-human Fc gamma specific antibodies (Jackson Immunochemicals) for detection.
as §1, with “Binding of hNotch2 and ligand blocking activity were thus confirmed for the 59R1 IgG2 antibody.” left out

[4] = tested on: hDLL4-induced Notch2 signaling; assay: Luciferase reporter assay, hDLL4-induced Notch2 signaling in Hela cells; type: cell-based, human; settings: antibody titrated from 40 μg/ml
Experimental: Luciferase reporter assays were used to assay the 59R1 antibody for its ability to block hDLL4-, hJAG1-, and hJAG2-induced Notch2 signaling.
Hela cells that stably overexpress human Notch2 were transiently transfected with firefly luciferase with a synthetic 8×CBS promoter (Ong et al., 2006, J. of Biological Chemistry, 281:5106-5119), pSPORT6 MAML-1, and Renilla luciferase-CMV as a transfection control. Cells were incubated with 100 ng of immobilized hDLL4 (R&D systems) with the indicated antibodies for 16 hours and then assayed using Dual-Glo (Promega) according to the manufacturer's instructions. Control antibody was at a concentration of 40 μg/ml. 59R1 IgG2 antibody was titrated, starting at 40 μg/ml, and then diluted by one-fourth. The gamma secretase inhibitor (GSI) dibenzazepine (DBZ) was used as a control at 1 μM.

murine Notch2 = assay: DLL4-Fc induced receptor activation in transfected PC3 cells, murine Notch2; type: cell-based, mouse; settings: immobilized DLL4-Fc
Experimental: 59R5 was determined to have similar activity in blocking Notch2 and Notch3 signaling as 59R1. Receptor activation was determined in luciferase-based assays. PC3 tumor cells were transiently transfected with a human or mouse Notch receptor (human Notch2, murine Notch2, human Notch3, or murine Notch3) and […] inducible reporter construct. Transfected cells were incubated with different concentrations of 59R1 or 59R5 antibody in the presence of passively immobilized DLL4-Fc protein. Notch receptor activation was determined by measuring luciferase activity.

T1 sequence (Q04721 26-2471): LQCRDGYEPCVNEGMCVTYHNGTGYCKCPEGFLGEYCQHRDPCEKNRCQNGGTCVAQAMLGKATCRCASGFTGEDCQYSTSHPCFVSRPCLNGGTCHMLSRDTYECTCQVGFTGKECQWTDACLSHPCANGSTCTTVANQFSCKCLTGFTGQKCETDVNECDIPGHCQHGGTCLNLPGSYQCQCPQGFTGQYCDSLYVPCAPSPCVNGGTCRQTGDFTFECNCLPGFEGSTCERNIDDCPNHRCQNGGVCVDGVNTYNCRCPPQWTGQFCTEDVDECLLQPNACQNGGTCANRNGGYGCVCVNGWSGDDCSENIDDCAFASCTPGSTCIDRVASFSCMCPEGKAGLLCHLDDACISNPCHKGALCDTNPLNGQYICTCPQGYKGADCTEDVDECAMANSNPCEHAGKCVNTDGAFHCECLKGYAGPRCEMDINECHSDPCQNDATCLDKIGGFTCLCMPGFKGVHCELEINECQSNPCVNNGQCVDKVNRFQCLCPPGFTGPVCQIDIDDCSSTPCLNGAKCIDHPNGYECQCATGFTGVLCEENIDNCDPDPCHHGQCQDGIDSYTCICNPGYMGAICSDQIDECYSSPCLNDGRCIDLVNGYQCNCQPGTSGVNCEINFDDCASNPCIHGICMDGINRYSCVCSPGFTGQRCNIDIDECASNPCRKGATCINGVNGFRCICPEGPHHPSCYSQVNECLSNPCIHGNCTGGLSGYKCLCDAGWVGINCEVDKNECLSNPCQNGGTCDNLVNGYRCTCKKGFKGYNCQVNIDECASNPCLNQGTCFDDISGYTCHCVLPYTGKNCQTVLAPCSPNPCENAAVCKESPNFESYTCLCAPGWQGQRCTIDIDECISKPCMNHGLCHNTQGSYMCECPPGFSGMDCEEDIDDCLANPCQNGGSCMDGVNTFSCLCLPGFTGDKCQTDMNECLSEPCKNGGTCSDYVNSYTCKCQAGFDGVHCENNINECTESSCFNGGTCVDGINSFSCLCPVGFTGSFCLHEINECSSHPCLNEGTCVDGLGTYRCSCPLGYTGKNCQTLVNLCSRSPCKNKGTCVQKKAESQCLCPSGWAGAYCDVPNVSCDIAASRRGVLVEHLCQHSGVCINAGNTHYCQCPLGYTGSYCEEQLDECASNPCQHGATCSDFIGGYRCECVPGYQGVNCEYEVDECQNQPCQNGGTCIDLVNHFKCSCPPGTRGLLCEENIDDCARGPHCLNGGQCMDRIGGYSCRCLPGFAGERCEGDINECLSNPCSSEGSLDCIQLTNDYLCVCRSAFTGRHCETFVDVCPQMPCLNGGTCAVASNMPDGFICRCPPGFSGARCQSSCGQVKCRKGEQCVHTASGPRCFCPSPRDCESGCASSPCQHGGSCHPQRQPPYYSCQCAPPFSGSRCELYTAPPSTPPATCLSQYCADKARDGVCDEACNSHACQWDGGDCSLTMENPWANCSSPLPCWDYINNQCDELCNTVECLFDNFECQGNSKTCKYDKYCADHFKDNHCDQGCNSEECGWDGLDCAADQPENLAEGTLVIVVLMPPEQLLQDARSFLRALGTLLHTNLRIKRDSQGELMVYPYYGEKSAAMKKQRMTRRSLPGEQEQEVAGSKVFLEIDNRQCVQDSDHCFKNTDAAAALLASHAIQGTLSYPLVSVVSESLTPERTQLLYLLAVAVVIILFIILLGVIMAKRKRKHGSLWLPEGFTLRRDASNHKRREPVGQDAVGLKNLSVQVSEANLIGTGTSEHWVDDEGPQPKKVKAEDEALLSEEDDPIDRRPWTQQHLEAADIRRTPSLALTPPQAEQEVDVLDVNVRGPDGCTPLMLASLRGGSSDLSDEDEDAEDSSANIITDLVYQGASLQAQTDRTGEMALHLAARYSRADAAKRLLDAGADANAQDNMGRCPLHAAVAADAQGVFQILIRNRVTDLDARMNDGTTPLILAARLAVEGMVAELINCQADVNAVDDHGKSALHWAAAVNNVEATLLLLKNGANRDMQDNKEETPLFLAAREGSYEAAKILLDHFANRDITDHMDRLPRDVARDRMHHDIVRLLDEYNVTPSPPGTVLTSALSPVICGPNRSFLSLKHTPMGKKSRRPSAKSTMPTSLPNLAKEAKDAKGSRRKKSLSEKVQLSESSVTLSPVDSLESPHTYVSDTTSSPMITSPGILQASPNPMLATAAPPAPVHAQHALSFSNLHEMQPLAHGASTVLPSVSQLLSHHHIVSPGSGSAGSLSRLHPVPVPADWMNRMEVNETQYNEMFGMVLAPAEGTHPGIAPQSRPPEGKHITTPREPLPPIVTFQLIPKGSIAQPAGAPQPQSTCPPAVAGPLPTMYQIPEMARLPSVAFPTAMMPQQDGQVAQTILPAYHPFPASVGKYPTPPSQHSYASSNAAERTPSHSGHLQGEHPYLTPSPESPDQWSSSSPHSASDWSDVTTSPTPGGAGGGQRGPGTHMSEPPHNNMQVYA
human Notch2, sequence (Q04721 26-2471): as above

Substance: 59R1: human IgG2 antibody binding Notch2 and Notch3; heavy and light chain SEQ ID NO:16 and 18; ATCC PTA-9547
- Fold 1416286_at (Rgs4) (stroma of Colo205 tumors [1]): −3.08
- Fold 1418829_a_at (Eno2) (stroma of Colo205 tumors [1]): 1.79
- Fold 1419302_at (Heyl) (stroma of Colo205 tumors [1]): −3.28
- Fold 1420941_at (Rgs5) (stroma of Colo205 tumors [1]): −5.10
- Fold 1422789_at (Aldh1a2) (stroma of Colo205 tumors [1]): −1.73
- Fold 1428361_x_at (Hba-al/Hba-a2) (stroma of Colo205 tumors [1]): −8.91
- Fold 1449280_at (Esm1) (stroma of Colo205 tumors [1]): 2.07
- Fold 1449632_s_at (Fkbp10) (stroma of Colo205 tumors [1]): −1.72
- Fold 1459713_s_at (Tmem16a) (stroma of Colo205 tumors [1]): −1.90
- Fold 1416286_at (Rgs4) (stroma of PE13 tumors): −1.83
- Fold 1417466_at (Rgs5) (stroma of PE13 tumors): −4.03
- Fold 1417714_x_at (Hba-al/Hba-a2) (stroma of PE13 tumors): −1.92
- Fold 1418829_a_at (Eno2) (stroma of PE13 tumors): 1.54
- Fold 1419302_at (Heyl) (stroma of PE13 tumors): −1.77
- Fold 1420872_at (Gucy1b3) (stroma of PE13 tumors): −3.06
- Fold 1420941_at (Rgs5) (stroma of PE13 tumors): −2.99
- Fold 1420942_s_at (Rgs5) (stroma of PE13 tumors): −4.23
- Fold 1421964_at (Notch3) (stroma of PE13 tumors): −1.91
- Fold 1422789_at (Aldh1a2) (stroma of PE13 tumors): −2.17
- Fold 1428361_x_at (Hba-al/Hba-a2) (stroma of PE13 tumors): −1.73
- Fold 1434141_at (Gucy1a3) (stroma of PE13 tumors): −4.18
- Fold 1449280_at (Esm1) (stroma of PE13 tumors): 1.56
- Fold 1449632_s_at (Fkbp10) (stroma of PE13 tumors): −1.63
- Fold 1451501_a_at (Ghr) (stroma of PE13 tumors): −1.66
- Fold 1452590_a_at (Plac9) (stroma of PE13 tumors): −1.62
- Fold 1459713_s_at (Tmem16a) (stroma of PE13 tumors): −7.28
- Fold 1417466_at (Rgs5) (stroma of Colo205 tumors [2]): −3.39
- Fold 1417714_x_at (Hba-al/Hba-a2) (stroma of Colo205 tumors [2]): −8.37
- Fold 1420872_at (Gucy1b3) (stroma of Colo205 tumors [2]): −1.94
- Fold 1420942_s_at (Rgs5) (stroma of Colo205 tumors [2]): −5.52
- Fold 1421964_at (Notch3) (stroma of Colo205 tumors [2]): −3.26
- Fold 1434141_at (Gucy1a3) (stroma of Colo205 tumors [2]): −2.49
- Fold 1451501_a_at (Ghr) (stroma of Colo205 tumors [2]): −1.83
- Fold 1452590_a_at (Plac9) (stroma of Colo205 tumors [2]): −1.61
- blocking of hDLL4 binding to human Notch2 (FACS) [3]: confirmed
- binding to human Notch2 (FACS) (human Notch2): confirmed
- hDLL4-induced Notch2 reporter activity [4]: inhibit

Substance: 59R5: human antibody that specifically binds human Notch 2 and human Notch 3; heavy and light chain SEQ ID NO:49 and 18; ATCC PTA-10170
- ligand-induced activation of murine Notch2 receptor signaling (murine Notch2): blocked
